pIC50: −log10 of the molar value. Read-outs that look alike come from different tables or passages of the source.
Experiments:
[1] = molecular target: human plasma kallikrein (Homo sapiens (Human), UniProt P03952); assay: Kallikrein inhibition assay (FLINT) utilizing a quenched AMC peptide substrate; format: biochemical; settings: 30 min preincubation, read-out: Kallikrein Kin Inh IC50; for pIC50: kinetic reads over 30 min, Z-Gly-Pro-Arg-AMC substrate 50 μM
Protocol: Biological Example 2: Kallikrein Inhibition Assay Utilizing a Quenched AMC Peptide Substrate A fluorescence intensity (FLINT) based assay was used to monitor inhibition of human plasma kallikrein.
The Kallikrein FLINT assay was used with the following Z-Gly-Pro-Arg-AMC assay buffer: 50 mM Tris, pH 7.5, 100 mM NaCl, 5 mM CaCl2), 0.1 mg/mL BSA, 0.03% CHAPS. Assay buffer was prepared by mixing all ingredients fresh. 2×Z-Gly-Pro-Arg-AMC peptide substrate was prepared by diluting 10 mM stock into 1×assay buffer for a 100 μM working concentration (50 μM final concentration). The 2×kallikrein stock solution was prepared by diluting 14.76 μM stock in 1×assay buffer for a 4 nM working stock solution (2 nM final concentration).
Test compound(s) were run in an 11-point, 3-fold serial dilution with a final top compound concentration of 1 μM. Final DMSO in assay was 2%. Plasma kallikrein was pre-incubated for 30-minute with compound and then 50 μM substrate was added to initiate the reaction. The assay was run with kinetic (KIN) reads at 5 min intervals over 30 minutes. […] More specifically, the assay was run as follows: • 100 nL of 0.1 mM test compound was dispensed into black 384-well non-binding Greiner BioOne 784900 plate for 1 μM final concentration; • 5 μL of 1×assay buffer was dispensed to columns 24 (low control) and 5 μL 2×human kallikrein enzyme solution was dispensed to columns 1-23 (column 23 high control); • the plate was centrifuged with a “cover” plate at 500 rpm for 1 min • the plate was pre-incubated for 30 minutes at room temperature with plate covered; • 5 μL of 2×Z-Gly-Pro-Arg-AMC peptide substrate was dispensed into the entire plate, columns 1-24; • the plate was centrifuged with a “cover” plate at 500 rpm for 1 min; • the plate was read monitoring fluorescence intensity on the BMG PHERAStar at room temperature, using fluorescence module 340 nm/440 nm.
(§1) Percent inhibition (IC50) curves were generated per compound tested, and data was analyzed using a 4-parameter logistic fit using GeneData Screener. The relative fluorescence unit (RFU) values were normalized to percent inhibition using the following equation:
% inhibition=((HC-LC)−(compound-LC)\(HC-LC))*100 where LC—low control=mean signal of human kallikrein enzyme or 100% inhibition of human kallikrein enzyme; HC—high control=mean signal of Factor XIa+Z-Gly-Pro-Arg-AMC peptide substrate with DMSO only.
(§2) An 11-point dose response curve for the test compound(s) was generated using GENDATA to determine IC50 value based on the following equation:
Y=Bottom+(Top-Bottom)/(1+10^((logIC50−X)*HillSlope)) where Y is the % inhibition in the presence of X inhibitor concentration, Top=high control=mean signal of human kallikrein enzyme+Z-Gly-Pro-Arg-AMC peptide substrate with DMSO only; Bottom=low control−mean signal of no human kallikrein enzyme or 100% inhibition of human kallikrein enzyme; HillSlope—Hill coefficient; and IC50=concentration of compound with 50% inhibition in relation to top/high control.

[2] = molecular target: Factor XIa (Homo sapiens (Human), UniProt P03951); assay: Factor XIa inhibition assay (FLINT) utilizing a fluorophore-quencher pair peptide substrate; format: biochemical; settings: 30 min preincubation, kinetic reads over 30 min, read-out: FXIa Kin Inh IC50
Excerpt: Biological Example 1: Factor XIa Inhibition Assay Utilizing a Fluorophore-Quencher Pair Peptide Substrate
A fluorescence intensity (FLINT) based assay was used to monitor inhibition of Factor XIa. The peptide substrate, 5Fam-[…]-K5Tamra (purchased from New England Peptide) was chosen based on the FXI sequence. Conversion of zymogen […]. The custom peptide used in this assay was based on the Arg146 cleavage site of FXI. The peptide substrate was designed with a fluorophore-quencher pair, where the fluorescence is quenched until FXIa cleaves the 8-mer peptide after the Arg residue.
The Factor XIa FLINT assay was used with the following 5Fam-[…]-K5Tamra assay buffer: 50 mM Tris, pH 7.5, 100 mM NaCl, 5 mM CaCl2), 0.1 mg/mL BSA, 0.03% CHAPS. Assay buffer was prepared by mixing all ingredients fresh. 5Fam-[…]-K5Tamra peptide substrate was first prepared at 10 mM in 100% DMSO, then diluted to 3 mM in 100% DMSO. Assay buffer was then added directly to the 3 mM stock of substrate to prepare the 30 μM 2× working concentration (15 μM final concentration). The 2×Factor XIa stock solution was prepared by diluting 6.562 μM stock in 1×assay buffer for a 200 μM working stock solution (100 μM final concentration).
Test compound(s) were run in an 11-point, 3-fold serial dilution with a final top compound concentration of 100 nM. Final DMSO in assay was 2%. FXIa was preincubated with compound for 30-minutes and then substrate was added to initiate the reaction. The assay was run with kinetic (KIN) reads at 5 min intervals over 30 minutes. The time course was linear using 100 μM FXIa greater than 30 minutes. More specifically, the assay was run as follows: • 100 nL of 0.01 mM test compound was dispensed into black 384 well non-binding Greiner BioOne 784900 plate for 0.1 μM final concentration; • 5 μL of 1×assay buffer was dispensed to column 24 (low control) and 5 μL 2×Factor XIa solution was dispensed to columns 1-23 (column 23 high control); • the plate was centrifuged with a “cover” plate at 500 rpm for 1 min • the plate was pre-incubated for 30 minutes at room temperature with plate covered; • 5 μL of 2×5Fam-[…]-K5Tamra peptide substrate was dispensed into the entire plate, columns 1-24; • the plate was centrifuged with a “cover” plate at 500 rpm for 1 min; • the plate was read monitoring fluorescence intensity on the BMG PHERAStar at room temperature, using fluorescence module 485 nm/520 nm.
as §1
% inhibition=((HC-LC)−(compound−LC)/(HC-LC))*100
where LC—low control=mean signal of no Factor XIa or 100% inhibition of Factor XIa; HC—high control=mean signal of Factor XIa+5Fam-[…]-K5Tamra peptide substrate with DMSO only.
as §2
Y=Bottom+(Top-Bottom)/(1+10^((logIC50-X)*HillSlope))
where Y is the % inhibition in the presence of X inhibitor concentration, Top=high control=mean signal of Factor XIa+5Fam-[…] K5Tamra peptide substrate with DMSO only; Bottom=low control−mean signal of no Factor XIa or 100% inhibition of Factor XIa; HillSlope—Hill coefficient; and IC50=concentration of compound with 50% inhibition in relation to top/high control.
Representative compounds of the present invention were tested according to the procedure described in Biological Example 1 and Biological Example 2 above, with results as listed in Table 3, below.

[3] = 5Fam-[…]-K5Tamra substrate 15 μM
[4] = 5Fam-KLTRAETV-K5Tamra substrate 15 μM

human plasma kallikrein, sequence (P03952 391-638): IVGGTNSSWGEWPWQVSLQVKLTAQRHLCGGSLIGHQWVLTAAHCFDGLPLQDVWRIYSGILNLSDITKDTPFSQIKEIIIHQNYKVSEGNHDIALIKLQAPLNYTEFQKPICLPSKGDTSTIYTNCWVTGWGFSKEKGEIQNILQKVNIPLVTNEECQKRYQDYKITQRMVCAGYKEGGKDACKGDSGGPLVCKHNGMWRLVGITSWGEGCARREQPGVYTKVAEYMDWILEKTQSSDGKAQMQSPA
human plasma kallikrein, sequence (P03952 20-390 partner): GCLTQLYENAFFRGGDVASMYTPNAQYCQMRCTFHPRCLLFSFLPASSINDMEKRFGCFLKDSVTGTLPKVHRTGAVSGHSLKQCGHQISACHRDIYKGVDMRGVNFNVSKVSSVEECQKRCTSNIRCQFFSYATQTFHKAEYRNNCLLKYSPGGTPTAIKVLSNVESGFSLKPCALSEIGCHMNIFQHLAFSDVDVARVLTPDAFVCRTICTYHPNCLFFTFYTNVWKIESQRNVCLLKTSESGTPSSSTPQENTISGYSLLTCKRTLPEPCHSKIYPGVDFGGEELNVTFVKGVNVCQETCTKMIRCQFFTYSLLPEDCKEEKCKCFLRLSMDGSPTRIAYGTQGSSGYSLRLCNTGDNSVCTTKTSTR
Factor XIa, sequence (P03951 388-625): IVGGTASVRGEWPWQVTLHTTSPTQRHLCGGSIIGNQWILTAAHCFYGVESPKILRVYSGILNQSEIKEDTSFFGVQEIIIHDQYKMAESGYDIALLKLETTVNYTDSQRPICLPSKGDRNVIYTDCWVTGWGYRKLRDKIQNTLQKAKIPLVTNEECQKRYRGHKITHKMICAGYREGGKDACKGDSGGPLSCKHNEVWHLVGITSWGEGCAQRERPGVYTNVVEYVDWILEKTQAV
Factor XIa, sequence (P03951 19-387 partner): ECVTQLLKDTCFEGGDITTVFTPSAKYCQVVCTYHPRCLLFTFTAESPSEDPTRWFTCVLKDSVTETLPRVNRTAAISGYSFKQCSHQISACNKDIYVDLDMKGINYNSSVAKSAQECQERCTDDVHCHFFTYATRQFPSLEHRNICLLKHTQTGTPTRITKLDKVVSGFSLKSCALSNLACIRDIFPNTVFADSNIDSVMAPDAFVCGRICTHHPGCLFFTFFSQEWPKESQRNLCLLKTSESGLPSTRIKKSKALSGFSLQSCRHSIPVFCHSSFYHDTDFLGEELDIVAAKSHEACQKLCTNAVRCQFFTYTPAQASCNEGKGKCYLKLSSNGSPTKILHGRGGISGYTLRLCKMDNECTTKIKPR

Nc1ccnn1-c1cc(-c2cnc([C@H]3CC[C@@H]4CC(c5c(-n6cnnn6)ccc(Cl)c5F)=CC(=O)N43)[nH]2)ccn1 (single isomer, unassigned) [Example 49, (3R*,8aR)-3-(5-(2-(5-amino-1H-pyrazol-1-yl)pyridin-4-yl)-1H-imidazol-2-yl)-7-(3-chloro-2-fluoro-6-(1H-tetrazol-1-yl)phenyl)-2,3,8,8a-tetrahydroindolizin-5(1H)-one]
pIC50 [1]: 7.94
pIC50 [2, 3]: 7.50

O=C1C=C(c2c(-n3cnnn3)ccc(Cl)c2F)CC2CC[C@@H](c3nc(-c4ncc[nH]4)c[nH]3)N12 (stereo partly drawn) [Example 333, (3S)-3-(1H,1′H-[2,4′-Biimidazol]-2′-yl)-7-(3-chloro-2-fluoro-6-(1H-tetrazol-1-yl)phenyl)-2,3,8,8a-tetrahydroindolizin-5(1H)-one]
IC50 ([1]; μM, kinetic reads): 1.1 µM
pIC50 [2, 4]: 6.55

[2H]c1cc(Cl)c(F)c(C2=CC(=O)N3[C@H](CC[C@H]3c3nc(-c4ccc(N)nc4F)c[nH]3)C2)c1-n1cnnn1 [Example 153, (3S,8aR)-3-[4-(6-amino-2-fluoro-3-pyridyl)-1H-imidazol-2-yl]-7-[3-chloro-5-deuterio-2-fluoro-6-(tetrazol-1-yl)phenyl]-2,3,8,8a-tetrahydro-1H-indolizin-5-one]
pIC50 [1]: 8.09
pIC50 [2, 4]: 9.30

Nc1nccc(-c2[nH]c([C@@H]3CC[C@@H]4CC(c5cc(Cl)ccc5-n5cnnn5)=CC(=O)N43)nc2F)c1F (single isomer, unassigned) [Example 70, (3S*,8aR)-3-(5-(2-amino-3-fluoropyridin-4-yl)-4-fluoro-1H-imidazol-2-yl)-7-(5-chloro-2-(1H-tetrazol-1-yl)phenyl)-2,3,8,8a-tetrahydroindolizin-5(1H)-one]
pIC50 [1]: 8.59
pIC50 [2, 3]: 9.52

[2H][C@@]12CC[C@@H](c3ncc(-c4ccnc(CO)c4F)[nH]3)N1C(=O)C=C(c1c(-n3cnnn3)ccc(Cl)c1F)C2 (relative stereo) [Example 48, (3S*,8aS)-7-(3-chloro-2-fluoro-6-(1H-tetrazol-1-yl)phenyl)-3-(5-(3-fluoro-2-(hydroxymethyl)pyridin-4-yl)-1H-imidazol-2-yl)-2,3,8,8a-tetrahydroindolizin-5(1H)-one-8a-d]
pIC50 [1]: 7.14
pIC50 [2, 3]: 7.65

Nc1nccc(-c2cnc([C@@H]3CC[C@@H]4CC(c5c(-n6cnnn6)ccc(Cl)c5F)=CC(=O)N43)[nH]2)c1Cl [Example 380, (3S,8aR)-3-(5-(2-amino-3-chloropyridin-4-yl)-1H-imidazol-2-yl)-7-(3-chloro-2-fluoro-6-(1H-tetrazol-1-yl)phenyl)-2,3,8,8a-tetrahydroindolizin-5(1H)-one]
pIC50 [1]: 8.38
pIC50 [2, 4]: 9.10

O=C1C=C(c2c(-n3cnnn3)ccc(Cl)c2F)C[C@H]2CC[C@H](c3ncc(-c4c[nH]nc4C(F)(F)F)[nH]3)N12 (single isomer, unassigned) [Example 239, (3*R,8a*R)-7-(3-Chloro-2-fluoro-6-(1H-tetrazol-1-yl)phenyl)-3-(5-(3-(trifluoromethyl)-1H-pyrazol-4-yl)-1H-imidazol-2-yl)-2,3,8,8a-tetrahydroindolizin-5(1H)-one]
pIC50 [1]: 7.80
pIC50 [2, 4]: 8.82

O=C1C=C(c2c(-n3cnnn3)ccc(Cl)c2F)C[C@H]2CC[C@@H](c3ncc(-c4ccnc(C5COC5)c4F)[nH]3)N12 [Example 130, (3S,8aR)-7-(3-chloro-2-fluoro-6-(1H-tetrazol-1-yl)phenyl)-3-(5-(3-fluoro-2-(oxetan-3-yl)pyridin-4-yl)-1H-imidazol-2-yl)-2,3,8,8a-tetrahydroindolizin-5(1H)-one]
pIC50 [1]: 7.90
pIC50 [2, 4]: 8.46

COC(=O)Nc1nccc(-c2[nH]c([C@@H]3CC[C@@H]4CC(c5c(-n6cnnn6)ccc(Cl)c5F)=CC(=O)N43)nc2F)c1F [Example 40, Methyl N-[4-[2-[(3S,8aR)-7-[3-chloro-2-fluoro-6-(tetrazol-1-yl)phenyl]-5-oxo-2,3,8,8a-tetrahydro-1H-indolizin-3-yl]-4-fluoro-1H-imidazol-5-yl]-3-fluoro-2-pyridyl]carbamate]
pIC50 [1]: 8.19
pIC50 [2, 4]: 9.10

COc1ccc(NC(=O)C2CC2)c(-c2c[nH]c([C@@H]3CC[C@H]4CC(c5c(-n6cnnn6)ccc(Cl)c5F)=CC(=O)N43)n2)c1 [Example 271, N-(2-(2-((3S,8aS)-7-(3-Chloro-2-fluoro-6-(1H-tetrazol-1-yl)phenyl)-5-oxo-1,2,3,5,8,8a-hexahydroindolizin-3-yl)-1H-imidazol-4-yl)-4-methoxyphenyl)cyclopropanecarboxamide]
pIC50 [2, 4]: 9.10

COc1ccc(NC(=O)C2CC2)c(-c2c[nH]c([C@@H]3CCC4CC(c5c(-n6cnnn6)ccc(Cl)c5F)=CC(=O)N43)n2)c1 (stereo partly drawn) [Example 279, N-(2-(2-((3S)-7-(3-Chloro-2-fluoro-6-(1H-tetrazol-1-yl)phenyl)-5-oxo-1,2,3,5,8,8a-hexahydroindolizin-3-yl)-1H-imidazol-4-yl)-4-methoxyphenyl)cyclopropanecarboxamide]
pIC50 [2, 4]: 9.05

COc1ccc(NC(=O)C2CC2)c(-c2c[nH]c([C@@H]3CC[C@@H]4CC(c5c(-n6cnnn6)ccc(Cl)c5F)=CC(=O)N43)n2)c1 [Example 257, N-[2-[2-[(3S,8aR)-7-[3-Chloro-2-fluoro-6-(tetrazol-1-yl)phenyl]-5-oxo-2,3,8,8a-tetrahydro-1H-indolizin-3-yl]-1H-imidazol-4-yl]-4-methoxy-phenyl]cyclopropanecarboxamide]
pIC50 [2, 4]: 9.30
